Structures are written as SMILES. A value given as a limit tells only on which side of the number the result lay.

Sequence of H1047R PIK3CA enzyme (P42336 whole entry H1047R): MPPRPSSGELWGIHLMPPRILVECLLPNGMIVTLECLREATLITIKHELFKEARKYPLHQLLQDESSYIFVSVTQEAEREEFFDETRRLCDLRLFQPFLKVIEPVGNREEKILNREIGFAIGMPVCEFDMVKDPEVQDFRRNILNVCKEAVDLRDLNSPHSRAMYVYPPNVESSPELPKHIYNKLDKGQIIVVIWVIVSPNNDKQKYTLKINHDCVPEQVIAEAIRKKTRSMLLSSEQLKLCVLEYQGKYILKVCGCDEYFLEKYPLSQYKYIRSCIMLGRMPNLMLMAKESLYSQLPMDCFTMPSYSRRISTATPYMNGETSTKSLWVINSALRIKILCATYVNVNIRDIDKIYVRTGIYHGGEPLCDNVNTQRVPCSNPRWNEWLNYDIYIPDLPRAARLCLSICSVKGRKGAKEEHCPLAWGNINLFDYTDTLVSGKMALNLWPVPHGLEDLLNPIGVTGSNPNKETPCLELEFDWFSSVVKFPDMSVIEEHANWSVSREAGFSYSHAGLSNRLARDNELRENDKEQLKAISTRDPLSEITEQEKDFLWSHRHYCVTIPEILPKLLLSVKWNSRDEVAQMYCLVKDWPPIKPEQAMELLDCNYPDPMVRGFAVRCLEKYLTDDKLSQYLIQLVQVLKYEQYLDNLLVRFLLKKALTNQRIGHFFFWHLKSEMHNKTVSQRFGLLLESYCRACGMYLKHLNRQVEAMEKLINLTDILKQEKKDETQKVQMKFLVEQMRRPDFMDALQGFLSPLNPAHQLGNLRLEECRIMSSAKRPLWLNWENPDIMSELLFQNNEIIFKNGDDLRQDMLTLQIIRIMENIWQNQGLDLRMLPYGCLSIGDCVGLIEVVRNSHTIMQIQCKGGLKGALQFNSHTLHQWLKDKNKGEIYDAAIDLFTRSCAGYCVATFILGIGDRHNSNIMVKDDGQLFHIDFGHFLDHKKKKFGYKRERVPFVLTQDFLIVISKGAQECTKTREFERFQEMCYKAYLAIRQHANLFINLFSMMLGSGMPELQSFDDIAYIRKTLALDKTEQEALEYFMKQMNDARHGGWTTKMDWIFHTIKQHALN
Sequence of H1047R PIK3CA enzyme (P27986 whole entry partner): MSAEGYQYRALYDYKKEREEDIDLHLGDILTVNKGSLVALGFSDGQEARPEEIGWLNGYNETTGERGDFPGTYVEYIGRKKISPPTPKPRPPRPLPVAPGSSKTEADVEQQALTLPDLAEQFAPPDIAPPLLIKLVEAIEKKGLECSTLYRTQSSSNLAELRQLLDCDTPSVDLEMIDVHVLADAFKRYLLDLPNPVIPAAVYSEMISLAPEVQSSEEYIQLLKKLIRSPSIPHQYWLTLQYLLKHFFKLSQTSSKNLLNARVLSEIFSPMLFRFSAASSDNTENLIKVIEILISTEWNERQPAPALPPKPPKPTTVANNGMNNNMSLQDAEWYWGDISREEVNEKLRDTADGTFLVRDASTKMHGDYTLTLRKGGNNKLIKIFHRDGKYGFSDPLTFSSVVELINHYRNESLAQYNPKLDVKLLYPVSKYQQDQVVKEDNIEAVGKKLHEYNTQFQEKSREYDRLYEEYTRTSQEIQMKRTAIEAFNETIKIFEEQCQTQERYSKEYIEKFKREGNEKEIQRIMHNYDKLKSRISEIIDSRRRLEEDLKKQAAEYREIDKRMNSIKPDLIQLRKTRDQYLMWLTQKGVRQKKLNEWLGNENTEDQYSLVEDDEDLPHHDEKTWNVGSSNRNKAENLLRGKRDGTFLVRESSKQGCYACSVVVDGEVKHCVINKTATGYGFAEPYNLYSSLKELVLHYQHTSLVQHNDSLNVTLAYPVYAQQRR

The test addresses H1047R PIK3CA enzyme (Homo sapiens, UniProt P42336, H1047R). Briefly: ADP-Glo Biochemical PIK3CA Kinase Assay.
`N#Cc1cnc2cnc(-c3cc(NC(=O)c4cc(F)cc(C(F)(F)F)c4)c4c(c3)C(=O)NC4c3cc(F)ccc3Cl)cn12` (stereo not shown) [Compound I-1767] had an IC50 not above 0.1 µM.
Compound `O=C(Nc1cc(-c2ccc(=O)n(C(F)F)c2)cc2c1C(c1cc(F)ccc1Cl)NC2=O)c1cc(F)cc(C(F)(F)F)c1` (stereo not shown) [Compound I-1768] yielded an IC50 not above 0.1 µM.
Under `O=C(Cc1cc(-c2ccc3ncnn3c2)cc2c1C(c1cc(F)ccc1Cl)NC2=O)c1cc(F)cc(C(F)(F)F)c1` (stereo not shown) [Compound I-1772] stands 0.1 to 0.5 µM; under `O=C(Nc1cc(-c2ccc3ncnn3c2)cc2c1C(c1cc(F)ccc1Cl)NC2=O)c1cc(CO)cc(C(F)(F)F)c1` (stereo not shown) [Compound I-1773], 10 to 100 µM.
As for `NC(=O)c1cc(-c2ccc3ncnn3c2)cc2c1C(c1cc(F)ccc1Cl)NC2=O` (stereo not shown) [Compound I-1774], the figure is 1 to 10 µM; as for `O=C1NC(c2cc(F)ccc2Cl)c2ccc(-c3ccc4ncnn4c3)cc21` (stereo not shown) [Compound I-1775], 10 to 100 µM; as for `CC(O)C1NC(=O)c2cccc(NC(=O)c3cc(F)cc(C(F)(F)F)c3)c21` (stereo not shown) [Compound I-1776], 1 to 10 µM.
Regarding `O=C(CC1CCC1)Nc1cc(-c2ccc3ncnn3c2)cc2c1C(c1cc(F)ccc1Cl)NC2=O` (stereo not shown) [Compound I-1777], the IC50 is 10 to 100 µM.
`O=C1NC(c2cc(F)ccc2Cl)c2c(NC(=O)C3CCC3)cc(-c3ccc4ncnn4c3)cc21` (stereo not shown) [Compound I-1778]: the IC50 is 10 to 100 µM.
As for `O=C(CC1CC1)Nc1cc(-c2ccc3ncnn3c2)cc2c1C(c1cc(F)ccc1Cl)NC2=O` (stereo not shown) [Compound I-1781], the figure is 10 to 100 µM.
Under `O=C1NC(c2cc(F)ccc2Cl)c2c(NC(=O)C3CCCC3)cc(-c3ccc4ncnn4c3)cc21` (stereo not shown) [Compound I-1782] stands 10 to 100 µM.
As for `O=C(CN1CCCC1)Nc1cc(-c2ccc3ncnn3c2)cc2c1C(c1cc(F)ccc1Cl)NC2=O` (stereo not shown) [Compound I-1783], the figure is 10 to 100 µM; as for `O=C(O)c1cc(-c2ccc3ncnn3c2)cc2c1C(c1cc(F)ccc1Cl)NC2=O` (stereo not shown) [Compound I-1784], 10 to 100 µM.
Compound `NC(=O)C(C(=O)Nc1cc(-c2ccc3ncnn3c2)cc2c1C(c1cc(F)ccc1Cl)NC2=O)c1ccccc1` (stereo not shown) [Compound I-1787] registered an IC50 of 1 to 10 µM.
Take `CN1CCCC(C(=O)Nc2cc(-c3ccc4ncnn4c3)cc3c2C(c2cc(F)ccc2Cl)NC3=O)C1` (stereo not shown) [Compound I-1792]: the IC50 was 1 to 10 µM.
Under `O=C(Nc1cc(-c2ccc3ncc(F)n3c2)cc2c1C(c1cc(F)ccc1Cl)NC2=O)c1cc(F)cc(C(F)(F)F)c1` (stereo not shown) [Compound I-1793] stands not above 0.1 µM; under `Cn1ncc(-c2cc(NC(=O)c3cc(F)cc(C(F)(F)F)c3)c3c(c2)C(=O)N[C@@H]3c2cc(F)ccc2Cl)c1C#N` [Compound I-1794], 1 to 10 µM; under `Cn1ncc(-c2cc(NC(=O)c3cc(F)cc(C(F)(F)F)c3)c3c(c2)C(=O)N[C@H]3c2cc(F)ccc2Cl)c1C#N` [Compound I-1795], not above 0.1 µM.
`N#Cc1cnc2ncc(-c3cc(NC(=O)c4cc(F)cc(C(F)(F)F)c4)c4c(c3)C(=O)NC4c3cc(F)ccc3Cl)cn12` (stereo not shown) [Compound I-1796] registered an IC50 not above 0.1 µM.
`N#Cc1cnc2c(F)cc(-c3cc(NC(=O)c4cc(F)cc(C(F)(F)F)c4)c4c(c3)C(=O)NC4c3cc(F)ccc3Cl)cn12` (stereo not shown) [Compound I-1797]: the IC50 is not above 0.1 µM.
Compound `N#Cc1cnn2ccc(-c3cc(NC(=O)c4cc(F)cc(C(F)(F)F)c4)c4c(c3)C(=O)N[C@@H]4c3cc(F)ccc3Cl)cc12` [Compound I-1798] displayed an IC50 of 1 to 10 µM.
Compound `N#Cc1cnn2ccc(-c3cc(NC(=O)c4cc(F)cc(C(F)(F)F)c4)c4c(c3)C(=O)N[C@H]4c3cc(F)ccc3Cl)cc12` [Compound I-1799] had a half-inhibitory concentration (IC50) not above 0.1 µM.
For the compound `N#CC1(n2cc(-c3cc(NC(=O)c4cc(F)cc(C(F)(F)F)c4)c4c(c3)C(=O)NC4c3cc(F)ccc3Cl)cn2)CC1` (stereo not shown) [Compound I-1800], the IC50 is not above 0.1 µM.
As for `N#Cc1cc(-c2ccc3ncnn3c2)cc2c1C(c1cc(F)ccc1Cl)NC2=O` (stereo not shown) [Compound I-1801], the figure is 1 to 10 µM.
Under `O=C(Nc1cc(-c2ccc3ncnn3c2)c(-c2ccc3ncnn3c2)c2c1C(c1cc(F)ccc1Cl)NC2=O)c1cc(F)cc(C(F)(F)F)c1` (stereo not shown) [Compound I-1802] stands 0.1 to 0.5 µM; under `O=C1NC(c2cc(F)ccc2Cl)c2c(NC(=O)C3CCCCO3)cc(-c3ccc4ncnn4c3)cc21` (stereo not shown) [Compound I-1803], 10 to 100 µM.
In the case of `O=C(Nc1cccc2c1C(c1ccccc1)NC2=O)c1cc(F)cc(C(F)(F)F)c1` (stereo not shown) [Compound I-1805], the IC50 lay in the range of 1 to 10 µM.
Under `NC(=O)Cn1nc(Nc2cc(-c3ccc4ncnn4c3)cc3c2C(c2cc(F)ccc2Cl)NC3=O)c2ccccc21` (stereo not shown) [Compound I-1806] stands 1 to 10 µM; under `O=C1NC(c2cc(F)ccc2Cl)c2c(Nc3nn(CCO)c4ccccc34)cc(-c3ccc4ncnn4c3)cc21` (stereo not shown) [Compound I-1807], 1 to 10 µM.
As for `N#CCn1nc(Nc2cc(-c3ccc4ncnn4c3)cc3c2C(c2cc(F)ccc2Cl)NC3=O)c2ccccc21` (stereo not shown) [Compound I-1808], the figure is 1 to 10 µM.
Under `O=C1NC(c2cc(F)ccc2Cl)c2c(Nc3nn(C4CC4)c4ccccc34)cc(-c3ccc4ncnn4c3)cc21` (stereo not shown) [Compound I-1809] stands 1 to 10 µM.
The compound `O=C1NC(c2cc(F)ccc2Cl)c2c(NC(=O)N3CCOC(C(F)(F)F)C3)cc(Br)cc21` (stereo not shown) [Compound I-1810] had an IC50 of 1 to 10 µM.
As to `NC1(C(=O)Nc2cc(-c3ccc4ncnn4c3)cc3c2C(c2cc(F)ccc2Cl)NC3=O)CCCC1` (stereo not shown) [Compound I-1812], the IC50 lay in the range of 10 to 100 µM.
Under `O=C1NC(c2cc(F)ccc2Cl)c2c(NC(=O)C3(O)CCCC3)cc(-c3ccc4ncnn4c3)cc21` (stereo not shown) [Compound I-1813] stands 10 to 100 µM; under `O=C1NC(c2cc(F)ccc2Cl)c2c(NC(=O)C3CCCOC3)cc(-c3ccc4ncnn4c3)cc21` (stereo not shown) [Compound I-1814], 10 to 100 µM; under `CN1CCC(C2NC(=O)c3cccc(NC(=O)c4cc(F)cc(C(F)(F)F)c4)c32)CC1` (stereo not shown) [Compound I-1815], 10 to 100 µM.
In turn, `CC(=O)N1CCC(C2NC(=O)c3cccc(NC(=O)c4cc(F)cc(C(F)(F)F)c4)c32)CC1` (stereo not shown) [Compound I-1818] yielded an IC50 of 10 to 100 µM.
Under `O=C1NC(c2cc(F)ccc2Cl)c2c(NC(=O)C3(c4cc(F)ccc4F)CCCC3)cc(Br)cc21` (stereo not shown) [Compound I-1819] stands 10 to 100 µM; under `O=C(Nc1cccc2c1C(C1CCCCC1O)NC2=O)c1cc(F)cc(C(F)(F)F)c1` (stereo not shown) [Compound I-1820], 10 to 100 µM; under `O=C1NC(c2cc(F)ccc2Cl)c2c(NC(=O)C3CCOCC3)cc(-c3ccc4ncnn4c3)cc21` (stereo not shown) [Compound I-1821], 10 to 100 µM.
As for `N#Cc1cc(-c2cc(NC(=O)c3cc(F)cc(C(F)(F)F)c3)c3c(c2)C(=O)NC3c2cc(F)ccc2Cl)cn2ncnc12` (stereo not shown) [Compound I-1822], the figure is not above 0.1 µM; as for `O=C(Nc1cc(-c2cn(C(F)F)cn2)cc2c1C(c1cc(F)ccc1Cl)NC2=O)c1cc(F)cc(C(F)(F)F)c1` (stereo not shown) [Compound I-1823], not above 0.1 µM.
As for `O=C(Nc1cc(-c2cnn3ncnc3c2)cc2c1C(c1cc(F)ccc1Cl)NC2=O)c1cc(F)cc(C(F)(F)F)c1` (stereo not shown) [Compound I-1824], the figure is not above 0.1 µM; as for `Cc1c(-c2cc(NC(=O)c3cc(F)cc(C(F)(F)F)c3)c3c(c2)C(=O)NC3c2cc(F)ccc2Cl)ccc2ncnn12` (stereo not shown) [Compound I-1825], not above 0.1 µM.
Turning to `N#Cc1nn(C(F)F)cc1-c1cc(NC(=O)c2cc(F)cc(C(F)(F)F)c2)c2c(c1)C(=O)NC2c1cc(F)ccc1Cl` (stereo not shown) [Compound I-1826], the IC50 is not above 0.1 µM.
Under `Cc1cc2ncnn2cc1-c1cc(NC(=O)c2cc(F)cc(C(F)(F)F)c2)c2c(c1)C(=O)NC2c1cc(F)ccc1Cl` (stereo not shown) [Compound I-1827] stands not above 0.1 µM; under `O=C(Nc1cc(-c2cc3ncnn3cc2F)cc2c1C(c1cc(F)ccc1Cl)NC2=O)c1cc(F)cc(C(F)(F)F)c1` (stereo not shown) [Compound I-1828], not above 0.1 µM; under `O=C1NC(c2cc(F)ccc2Cl)c2c(NC(=O)C3CCCO3)cc(-c3ccc4ncnn4c3)cc21` (stereo not shown) [Compound I-1831], 10 to 100 µM.
Consider `O=C(Nc1cccc2c1C(C1CNC1)NC2=O)c1cc(F)cc(C(F)(F)F)c1` (stereo not shown) [Compound I-1833], for which the IC50 is 10 to 100 µM.
Compound `N#CC(C(=O)Nc1cc(-c2ccc3ncnn3c2)cc2c1C(c1cc(F)ccc1Cl)NC2=O)c1ccccc1` (stereo not shown) [Compound I-1834] returned an IC50 of 1 to 10 µM.
Compound `O=C(Nc1cccc2c1C(C1CCC(O)CC1)NC2=O)c1cc(F)cc(C(F)(F)F)c1` (stereo not shown) [Compound I-1835] came in with an IC50 of 10 to 100 µM.
Under `CC(C#N)n1cc(-c2cc(NC(=O)c3cc(F)cc(C(F)(F)F)c3)c3c(c2)C(=O)NC3c2cc(F)ccc2Cl)cn1` (stereo not shown) [Compound I-1837] stands not above 0.1 µM; under `N#Cc1cnc2cc(F)c(-c3cc(NC(=O)c4cc(F)cc(C(F)(F)F)c4)c4c(c3)C(=O)NC4c3cc(F)ccc3Cl)cn12` (stereo not shown) [Compound I-1838], not above 0.1 µM; under `Cn1nc(C(F)F)cc1-c1cc(NC(=O)c2cc(F)cc(C(F)(F)F)c2)c2c(c1)C(=O)NC2c1cc(F)ccc1Cl` (stereo not shown) [Compound I-1839], not above 0.1 µM.
Regarding `O=C(Nc1cc(-c2ccc3nnc(C(F)F)n3c2)cc2c1C(c1cc(F)ccc1Cl)NC2=O)c1cc(F)cc(C(F)(F)F)c1` (stereo not shown) [Compound I-1840], the IC50 was not above 0.1 µM.
Regarding `Cn1nc2ccccc2c1Nc1cc(-c2ccc3ncnn3c2)cc2c1C(c1cc(F)ccc1Cl)NC2=O` (stereo not shown) [Compound I-1841], the IC50 was in the range of 10 to 100 µM.
On to `CNC(=O)c1cc(-c2ccc3ncnn3c2)cc2c1C(c1cc(F)ccc1Cl)NC2=O` (stereo not shown) [Compound I-1846], for which the IC50 is 10 to 100 µM.
`O=C1NC(c2cc(F)ccc2Cl)c2c(CO)cc(-c3ccc4ncnn4c3)cc21` (stereo not shown) [Compound I-1851] returned an IC50 of 10 to 100 µM.
As to `O=C1NC(c2cc(F)ccc2Cl)c2c(NC3CCc4ccccc43)cc(Br)cc21` (stereo not shown) [Compound I-1852], the IC50 was 10 to 100 µM.
`N#Cc1cnc2c(F)cc(-c3cc(NC(=O)c4cc(F)cc(C(F)(F)F)c4)c4c(c3)C(=O)N[C@@H]4c3cc(F)ccc3Cl)cn12` [Compound I-1855] showed an IC50 of 0.5 to 1 µM.
On to `N#Cc1cnc2c(F)cc(-c3cc(NC(=O)c4cc(F)cc(C(F)(F)F)c4)c4c(c3)C(=O)N[C@H]4c3cc(F)ccc3Cl)cn12` [Compound I-1856], for which the IC50 was not above 0.1 µM.

For the origin of these results see patent US12581252B2, “Substituted pyrrolo[3,4-b]pyridines as PI3K-α inhibitors” (Relay Therapeutics, Inc., priority 2020, dated 2026).
